Consider one compound from article PMC6830379 (International Journal of Nanomedicine, 2019).

Where a name gives a salt, the structure may show the parent alone. Read-outs that look alike come from different tables or passages of the source.

For series [1] the following is noted: depending on the dosage form; reported, ref not given; cited from earlier work.
For series [2] the following is noted: cited from earlier work.
Series [3] is described as follows: Determination of SQR solubility in oils, surfactants and co-surfactants. The format is physicochemical. Conditions: ethanol.

Consider `CC(C)(C)NC(=O)[C@@H]1C[C@@H]2CCCC[C@@H]2CN1C[C@@H](O)[C@H](Cc1ccccc1)NC(=O)[C@H](CC(N)=O)NC(=O)c1ccc2ccccc2n1` [SQR, Saquinavir mesylate], for which the oral bioavailability in series [1] is listed as 0.7–4.0%. The aqueous solubility is 0.073 mg/mL in series [2] (pH of 6.5) and 0.036 mg/mL in series [2] (pH of 7.4). In addition, the solubility at 72 h in series [3] was 126 mg/mL.

In general, aqueous solubility refers to the concentration that dissolves in the medium under given conditions. Broadly, the solubility is the dissolved amount per volume that the medium holds. High values mean a readily soluble substance, low ones a poorly soluble substance.
